Data taken from patent publication US20240409585A1, “MACROCYCLIC IMMUNOMODULATORS” (priority 2021, published 2024).
Bridge positions count the residues as written; N and C are the ends. Square brackets hold non-standard residues; d marks the D form. Peptide text beside a SMILES is read from it. * marks the point of attachment. ξ: configuration not given here. Phe(4-COOH) = N[C@@H](Cc1ccc(C(=O)O)cc1)C(=O)O; Bip = N[C@@H](Cc1ccc(-c2ccccc2)cc1)C(=O)O; Phe(4-CN) = N#Cc1ccc(C[C@H](N)C(=O)O)cc1; Phe(3-Me) = Cc1cccc(C[C@H](N)C(=O)O)c1; Val(3-OH) = CC(C)(O)[C@H](N)C(=O)O; 3Pal = N[C@@H](Cc1cccnc1)C(=O)O; 4Pal = N[C@@H](Cc1ccncc1)C(=O)O; Cha = N[C@@H](CC1CCCCC1)C(=O)O; Cit = NC(=O)NCCC[C@H](N)C(=O)O; Ile(3ξ) = CCC(C)[C@H](N)C(=O)O; Thr(3ξ) = CC(O)[C@H](N)C(=O)O; Carboxymethyl = O=C(O)C*; NMeA = CN[C@@H](C)C(=O)O; Orn = NCCC[C@H](N)C(=O)O; Dab = NCC[C@H](N)C(=O)O

Biological target: T1, PE-labeled human PD-L1-Ig binding to Jurkat cell line over-expressing human PD-1 (Jurkat-PD-1) (Homo sapiens, UniProt Q15116)
T1 construct: expressed in transfected cells; host or cells: Jurkat
Assay: Jurkat-PD-1 Cell Binding High-Content Screening Assay (CBA): Method 1
Details: Jurkat-hPD-1 cells, PE-labeled PD-L1-Ig 20 nM final; read-out: Jurkat HPDL1 PD1 IC50 (uM) (Method 1)

T1 sequence (Q15116 25-288): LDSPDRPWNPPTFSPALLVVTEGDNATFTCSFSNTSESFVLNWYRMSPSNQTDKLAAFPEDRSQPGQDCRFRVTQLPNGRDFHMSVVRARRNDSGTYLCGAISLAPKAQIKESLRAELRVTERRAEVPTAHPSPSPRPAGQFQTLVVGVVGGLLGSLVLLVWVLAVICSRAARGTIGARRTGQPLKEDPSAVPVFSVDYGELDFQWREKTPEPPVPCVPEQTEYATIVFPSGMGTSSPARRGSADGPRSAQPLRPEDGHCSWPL

In order of falling IC50:
1. CC(C)C[C@@H]1NC(=O)[C@H](CCCNC(=N)N)NC(=O)[C@@H](CC(C)C)NC(=O)[C@H](C)N(C)C(=O)[C@H](CCCNC(=N)N)NC(=O)[C@H](Cc2ccc(-c3ccccc3)cc2)NC(=O)[C@H](C(C)C)NC(=O)[C@H](Cc2c[nH]c3ccccc23)NC(=O)[C@H](CC(=O)O)NC(=O)[C@H](Cc2ccc(OCC(=O)O)cc2)NC(=O)[C@H](Cc2ccccc2)NC(=O)CSC[C@@H](C(=O)N[C@@H](C)C(N)=O)NC(=O)[C@H]([C@@H](C)O)NC(=O)[C@H](C(C)C)NC1=O [Compound 1094] ({CH2CO}-FY(Carboxymethyl)DWV[Bip]R[NMeA][dL]RLVTCA-NH2; thioether N-14)  0.77 µM
2. CCC(C)[C@@H]1NC(=O)[C@H](Cc2ccc(-c3ccccc3)cc2)NC(=O)[C@H](C(C)C)NC(=O)[C@H](Cc2cccc(C)c2)NC(=O)[C@H](CC(=O)O)NC(=O)[C@H](Cc2ccc(OCC(=O)O)cc2)NC(=O)[C@H](Cc2ccncc2)NC(=O)CSC[C@@H](C(=O)N[C@@H](CO)C(=O)O)NC(=O)[C@H](CO)NC(=O)[C@H](C(C)C)NC(=O)[C@H](CC2CCCCC2)NC(=O)[C@H](CCN)NC(=O)[C@@H](CC(C)C)NC(=O)[C@H](C)N(C)C1=O (stereo partly drawn) [Compound 2236] ({CH2CO}-[4Pal]Y(Carboxymethyl)D[Phe(3-Me)]V[Bip][Ile(3ξ)][NMeA][dL][Dab][Cha]VSCS-OH; thioether N-14)  0.31 µM
3. Cc1cccc(C[C@@H]2NC(=O)[C@H](CC(=O)O)NC(=O)[C@H](Cc3ccc(C(=O)O)cc3)NC(=O)[C@H](Cc3ccncc3)NC(=O)CSC[C@@H](C(=O)N[C@@H](CO)C(N)=O)NC(=O)[C@H](CCC(=O)O)NC(=O)[C@H](C(C)(C)O)NC(=O)[C@H](CC3CCCCC3)NC(=O)[C@H](CCN)NC(=O)[C@@H](CC(C)C)NC(=O)[C@H](C)N(C)C(=O)[C@H](Cc3ccc(OCC(=O)O)cc3)NC(=O)[C@H](Cc3ccc(-c4ccccc4)cc3)NC(=O)[C@H](Cc3ccc(C(=O)O)cc3)NC2=O)c1 [Compound 2195] ({CH2CO}-[4Pal][Phe(4-COOH)]D[Phe(3-Me)][Phe(4-COOH)][Bip]Y(Carboxymethyl)[NMeA][dL][Dab][Cha][Val(3-OH)]ECS-NH2; thioether N-14)  0.08 µM
4. CC(C)C[C@@H]1NC(=O)[C@H](CCN)NC(=O)[C@@H](CC(C)C)NC(=O)[C@H](C)N(C)C(=O)[C@H](CCCNC(=N)N)NC(=O)[C@H](Cc2ccc(-c3ccccc3)cc2)NC(=O)[C@H](C(C)C)NC(=O)[C@H](Cc2c[nH]c3ccccc23)NC(=O)[C@H](CC(=O)O)NC(=O)[C@H](Cc2ccc(O)cc2)NC(=O)[C@H](CCCN)NC(=O)CSC[C@@H](C(=O)N[C@@H](C)C(N)=O)NC(=O)[C@H]([C@@H](C)O)NC(=O)[C@H](C(C)C)NC1=O [Compound 1341] ({CH2CO}-[Orn]YDWV[Bip]R[NMeA][dL][Dab]LVTCA-NH2; thioether N-14)  0.05 µM
5. CC(C)C[C@@H]1NC(=O)[C@H](Cc2c[nH]c3ccccc23)NC(=O)[C@H](CC(=O)O)NC(=O)[C@H](Cc2ccc(O)cc2)NC(=O)[C@H](Cc2ccccc2)NC(=O)CSC[C@@H](C(=O)NCC(N)=O)NC(=O)[C@H](CO)NC(=O)[C@H](C(C)C)NC(=O)[C@H](CC(C)C)NC(=O)[C@H](CC(N)=O)NC(=O)CNC(=O)[C@H](C)N(C)C(=O)[C@H](C(C)C)NC(=O)[C@H](Cc2ccc(-c3ccccc3)cc2)NC1=O [Compound 1757] ({CH2CO}-FYDWL[Bip]V[NMeA]GNLVSCG-NH2; thioether N-14)  0.03 µM
6. CC(C)C[C@@H]1NC(=O)[C@H](CCN)NC(=O)[C@@H](CC(C)C)NC(=O)[C@H](C)N(C)C(=O)[C@H](CCCNC(N)=O)NC(=O)[C@H](Cc2ccc(-c3ccccc3)cc2)NC(=O)[C@H](C(C)C)NC(=O)[C@H](Cc2c[nH]c3ccccc23)NC(=O)[C@H](CC(=O)O)NC(=O)[C@H](Cc2ccc(O)cc2)NC(=O)[C@H](Cc2ccc(OCC(=O)O)cc2)NC(=O)CSC[C@@H](C(=O)N[C@@H](C)C(N)=O)NC(=O)[C@H]([C@@H](C)O)NC(=O)[C@H](C(C)C)NC1=O [Compound 1324] ({CH2CO}-Y(Carboxymethyl)YDWV[Bip][Cit][NMeA][dL][Dab]LVTCA-NH2; thioether N-14)  0.03 µM
7. CC(C)C[C@@H]1NC(=O)[C@H](CCN)NC(=O)[C@@H](CC(C)C)NC(=O)[C@H](C)N(C)C(=O)[C@H](CCCNC(=N)N)NC(=O)[C@H](Cc2ccc(-c3ccccc3)cc2)NC(=O)[C@H](C(C)C)NC(=O)[C@H](Cc2c[nH]c3ccccc23)NC(=O)[C@H](CC(=O)O)NC(=O)[C@H](Cc2ccncc2)NC(=O)[C@H](Cc2cccnc2)NC(=O)CSC[C@@H](C(=O)N[C@@H](C)C(N)=O)NC(=O)[C@H]([C@@H](C)O)NC(=O)[C@H](C(C)C)NC1=O [Compound 1147] ({CH2CO}-[3Pal][4Pal]DWV[Bip]R[NMeA][dL][Dab]LVTCA-NH2; thioether N-14)  0.02 µM
8. CC(C)C[C@@H]1NC(=O)[C@H](Cc2c[nH]c3ccccc23)NC(=O)[C@H](CC(=O)O)NC(=O)[C@H](Cc2ccc(C#N)cc2)NC(=O)[C@H](CC(N)=O)NC(=O)CSC[C@@H](C(=O)NCC(N)=O)NC(=O)[C@H](CO)NC(=O)[C@H](C(C)C)NC(=O)[C@H](CC(C)C)NC(=O)[C@H](CC(N)=O)NC(=O)[C@@H](CC(C)C)NC(=O)[C@H](C)N(C)C(=O)[C@H](C(C)C)NC(=O)[C@H](Cc2ccc(-c3ccccc3)cc2)NC1=O [Compound 1527] ({CH2CO}-N[Phe(4-CN)]DWL[Bip]V[NMeA][dL]NLVSCG-NH2; thioether N-14)  0.01 µM
9. Cc1cccc(C[C@@H]2NC(=O)[C@H](CC(=O)O)NC(=O)[C@H](Cc3ccncc3)NC(=O)[C@H](Cc3ccc(OCC(=O)O)cc3)NC(=O)CSC[C@@H](C(N)=O)NC(=O)[C@H](CO)NC(=O)[C@H](C(C)C)NC(=O)[C@H](CC(C)C)NC(=O)[C@H](CC(N)=O)NC(=O)[C@@H](CC(C)C)NC(=O)[C@H](C)N(C)C(=O)[C@H](C(C)C)NC(=O)[C@H](Cc3ccc(-c4ccccc4)cc3)NC(=O)[C@H](CC(C)C)NC2=O)c1 [Compound 1595] ({CH2CO}-Y(Carboxymethyl)[4Pal]D[Phe(3-Me)]L[Bip]V[NMeA][dL]NLVSC-NH2; thioether N-14)  0.01 µM
10. CCC(C)[C@@H]1NC(=O)[C@H](Cc2ccc(-c3ccccc3)cc2)NC(=O)[C@H](C(C)C)NC(=O)[C@H](Cc2cccc(C)c2)NC(=O)[C@H](CC(=O)O)NC(=O)[C@H](Cc2ccc(OCC(=O)O)cc2)NC(=O)[C@H](C(C)O)NC(=O)CSC[C@@H](C(=O)N[C@@H](CCN)C(N)=O)NC(=O)[C@H](C(C)O)NC(=O)[C@H](C(C)C)NC(=O)[C@H](CC2CCCCC2)NC(=O)[C@H](CCN)NC(=O)[C@@H](CC(C)C)NC(=O)[C@H](C)N(C)C1=O (stereo partly drawn) [Compound 2116] ({CH2CO}-[Thr(3ξ)]Y(Carboxymethyl)D[Phe(3-Me)]V[Bip][Ile(3ξ)][NMeA][dL][Dab][Cha]V[Thr(3ξ)]C[Dab]-NH2; thioether N-14)  0.01 µM
11. CC(C)C[C@@H]1NC(=O)[C@H](Cc2c[nH]c3ccccc23)NC(=O)[C@H](CC(=O)O)NC(=O)[C@H](Cc2ccc(O)cc2)NC(=O)[C@H](Cc2ccncc2)NC(=O)CSC[C@@H](C(=O)N[C@@H](C)C(N)=O)NC(=O)[C@H](CO)NC(=O)[C@H](C(C)C)NC(=O)[C@H](CC(C)C)NC(=O)[C@H](CC(N)=O)NC(=O)[C@@H](C)NC(=O)[C@H](C)N(C)C(=O)[C@H](C(C)C)NC(=O)[C@H](Cc2ccc(-c3ccccc3)cc2)NC1=O [Compound 1730] ({CH2CO}-[4Pal]YDWL[Bip]V[NMeA][dA]NLVSCA-NH2; thioether N-14)  0.01 µM
